Reference: ChEMBL document CHEMBL3286201, “Antileishmanial activity of a series of N²,N⁴-disubstituted quinazoline-2,4-diamines” (J Med Chem, 2014)

Experiments:
[1] = Elimination half life in Swiss Webster mouse plasma at 100 umol/kg, po; format: ADME, cell-free
Liver [2] = test: AUC (last) in Swiss Webster mouse liver at 100 umol/kg, po; format: ADME, tissue-based; parameters: dose 100 umol/kg, time 0 - last, route oral; conditions: in vivo
[3] = Cmax in Swiss Webster mouse plasma at 100 umol/kg, po; format: ADME, cell-free; parameters: dose 100 umol/kg, route oral
[4] = Distribution coefficient, log D of the compound at pH 7.4; format: physicochemical; conditions: octanol/water
[5] = Aqueous solubility of the compound at pH 7.4; format: physicochemical; conditions: buffer
Leishmania amazonensis = test: Antileishmanial activity against intracellular amastigote stage of Leishmania amazonensis LV78 infected in mouse J774A1 cells by colorimetric assay; format: functional, organism-based; conditions: LV78, J774.A1
Liver [6] = test: Half life in mouse liver microsomes at 1 uM after 60 mins by HPLC-MS/MS analysis; format: ADME; conditions: 1 h
[7] = AUC (last) in Swiss Webster mouse plasma at 100 umol/kg, ip; format: ADME, cell-free; parameters: dose 100 umol/kg, route intraperitoneal, time 0 - last
Liver [8] = test: Cmax in Swiss Webster mouse liver at 100 umol/kg, po; format: ADME, tissue-based; parameters: dose 100 umol/kg, route oral; conditions: in vivo
Spleen [9] = test: AUC (last) in Swiss Webster mouse spleen at 100 umol/kg, ip; format: ADME, tissue-based; parameters: dose 100 umol/kg, route intraperitoneal, time 0 - last; conditions: in vivo
Leishmania donovani [10] = test: Antileishmanial activity against intracellular amastigote stage of Leishmania donovani MHOM/ET/67/L82 infected in mouse J774A1 cells by colorimetric assay; format: functional, organism-based; conditions: MHOM/ET/67/L82, J774.A1
Spleen [11] = test: AUC (last) in Swiss Webster mouse spleen at 100 umol/kg, po; format: ADME, tissue-based; parameters: dose 100 umol/kg, time 0 - last, route oral; conditions: in vivo
Mus musculus [12] = test: Toxicity in BALB/c mouse assessed as hypoactivity at 30 mg/kg, ip for 5 consecutive doses; format: organism-based; parameters: dose 30 mg/kg, route intraperitoneal; conditions: in vivo
[13] = pampa, pH 4
Description: Passive transcellular permeability of the compound at pH 4 by PAMPA

Leishmania donovani [14] = test: Antileishmanial activity against antimony-resistant clinical isolate Leishmania donovani BPK164/1 infected in mouse J774A1 cells by colorimetric assay; format: functional, organism-based; conditions: BPK164/1, J774.A1
[15] = Cmax in Swiss Webster mouse plasma at 100 umol/kg, ip; format: ADME, cell-free; parameters: dose 100 umol/kg, route intraperitoneal
[16] = Elimination half life in Swiss Webster mouse plasma at 100 umol/kg, ip; format: ADME, cell-free; conditions: read-out: beta t1/2 (converted)
[17] = Cytotoxicity against mouse J774A1 cells after 72 hrs by MTT assay; format: cell-based; conditions: J774.A1, 72 h
Leishmania donovani [18] = test: Antileishmanial activity against clinical isolate Leishmania donovani BPK206/0 infected in mouse J774A1 cells by colorimetric assay; conditions: BPK206/0, J774.A1
[19] = pampa, pH 7.4
Description: Passive transcellular permeability of the compound at pH 7.4 by PAMPA

Spleen [20] = test: Cmax in Swiss Webster mouse spleen at 100 umol/kg, ip; format: ADME, tissue-based; parameters: dose 100 umol/kg, route intraperitoneal; conditions: in vivo
[21] = AUC (last) in Swiss Webster mouse plasma at 100 umol/kg, po; format: ADME, cell-free; parameters: dose 100 umol/kg, route oral, time 0 - last
[22] = Distribution coefficient, log D of the compound at pH 3; format: physicochemical; conditions: octanol/water
Liver [23] = test: Cmax in Swiss Webster mouse liver at 100 umol/kg, ip; format: ADME, tissue-based; parameters: dose 100 umol/kg, route intraperitoneal; conditions: in vivo
[24] = Aqueous solubility of the compound at pH 2; format: physicochemical; conditions: buffer
Spleen [25] = test: Cmax in Swiss Webster mouse spleen at 100 umol/kg, po; format: ADME, tissue-based; parameters: dose 100 umol/kg, route oral; conditions: in vivo
Liver [26] = test: AUC (last) in Swiss Webster mouse liver at 100 umol/kg, ip; format: ADME, tissue-based; parameters: dose 100 umol/kg, time 0 - last, route intraperitoneal; conditions: in vivo
Mus musculus [27] = test: Toxicity in BALB/c mouse assessed as slowed breathing at 30 mg/kg, ip for 5 consecutive doses; format: organism-based; parameters: dose 30 mg/kg, route intraperitoneal; conditions: in vivo

SMILES	AUClast (Liver [2]) [µM·h]	Cmax [3] [µM]	logD [4]	solubility [5] [µM]	EC50 (Leishmania amazonensis) [nM]	t1/2 (Liver [6]) [h]	AUC(0-t) [7] [µM·h]	Cmax (Liver [8]) [µM]	AUClast (Spleen [9]) [µM·h]	EC50 (Leishmania donovani [10]) [nM]	AUClast (Spleen [11]) [µM·h]	permeability [13] [×10⁻⁶ cm/s]	EC50 (Leishmania donovani [14]) [nM]	Cmax [15] [µM]	half-life [16] [h]	EC50 [17] [nM]	EC50 (Leishmania donovani [18]) [nM]	permeability [19] [×10⁻⁶ cm/s]	Cmax (Spleen [20]) [µM]	AUC(0-t) [21] [µM·h]	other results
Cc1ccc2c(NCc3ccco3)nc(NC(C)C)nc2c1	29	0.25	3.61	≤ 20	4100	0.157	4.6	5.2	71	830	7.4	67.2	3800	2.67	5.4	> 33000	4200	798	45.8	2.5	half-life [1]: 20 h; Activity (Mus musculus [12]): Toxic; logD [22]: 1.58; Cmax (Liver [23]): 48 µM; solubility [24]: ≥ 30 µM; Cmax (Spleen [25]): 0.9 µM; AUClast (Liver [26]): 42 µM·h
CCCCNc1nc(NCc2ccccc2)nc2ccccc12	110	0.44	3.84	≤ 10	1400	0.45	11	15.8	620	340	68	341	1400	5.21	20	4900	2000	1020	163	7.8	Activity (Mus musculus [27]): Toxic; logD [22]: 2.86; Cmax (Liver [23]): 148 µM; solubility [24]: ≥ 30 µM; Cmax (Spleen [25]): 7 µM; AUClast (Liver [26]): 500 µM·h
